The record followed here is patent publication US20120196853A1, “Novel Quinoline-Hepcidine Antagonists” (VIFOR (INTERNATIONAL) AG, priority 2009, published 2012).

This experiment concerns the target T1, human ferroportin (Fpn-HaloTag fusion protein) (Homo sapiens, UniProt Q9NP59).
T1 construct: expressed in transfected cells
T1 sequence (Q9NP59 1-571): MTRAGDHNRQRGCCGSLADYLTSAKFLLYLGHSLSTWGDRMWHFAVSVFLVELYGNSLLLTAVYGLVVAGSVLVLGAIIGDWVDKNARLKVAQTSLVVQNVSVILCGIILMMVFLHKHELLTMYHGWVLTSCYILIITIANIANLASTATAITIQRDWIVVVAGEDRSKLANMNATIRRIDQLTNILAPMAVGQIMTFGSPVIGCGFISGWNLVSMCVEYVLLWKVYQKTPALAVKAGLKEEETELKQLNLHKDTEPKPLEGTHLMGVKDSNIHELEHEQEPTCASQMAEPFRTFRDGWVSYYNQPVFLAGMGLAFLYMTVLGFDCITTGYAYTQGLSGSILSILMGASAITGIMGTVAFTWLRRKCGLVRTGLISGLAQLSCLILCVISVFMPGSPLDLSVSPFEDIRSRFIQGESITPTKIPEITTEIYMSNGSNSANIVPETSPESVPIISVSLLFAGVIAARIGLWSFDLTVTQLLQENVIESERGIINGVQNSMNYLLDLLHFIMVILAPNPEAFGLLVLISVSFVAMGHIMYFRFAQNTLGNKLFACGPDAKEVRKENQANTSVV
Kind of experiment: ferroportin internalization assay (inhibition of hepcidin-induced internalization of Fpn, MDCK-FPN-HaloTag cells). The format is cell-based. The settings on record: 100 nM hepcidin, overnight, dilution series 0.04 to 40 μM. The protocol:
The hepcidin-antagonistic action of the quinoline compounds of the present invention was determined by means of the “ferroportin internalization assay” described in the following.
Organic compounds of low molecular weight which counteract the biological actions of hepcidin on its receptor, the iron exporter ferroportin (Fpn), were identified on the basis of their ability to inhibit hepcidin-induced internalization of Fpn in living cells. For this purpose, a stable cell line (Madin-Darby canine kidney, MDCK) was produced which constitutively expresses human ferroportin fused recombinantly at its C terminus with a fluorescent reporter protein (HaloTag®, Promega Corp.). The internalization of Fpn was monitored by labelling these cells with fluorescent ligands (HaloTag®-TMR, tetramethylrhodamine) which join covalently on to the HaloTag reporter gene fused with the Fpn. […] Optimized image analysis algorithms were used to ascertain the cell surface and to quantify the corresponding membrane fluorescence associated with the Fpn-HaloTag fusion protein. This assay allows a quantitative image-based analysis in order to quickly evaluate compounds which can block hepcidin-induced internalization of Fpn. This assay is a direct in vitro pendant of the in vivo action mechanism proposed for medicament candidates and is therefore suitable as an initial assay with a high throughput for identifying compounds which counteract the action of hepcidin on its receptor ferroportin.
• 7,500 cells per well (MDCK-FPN-HaloTag) were transinoculated in 50 μl DMEM medium (Dulbeccos modified Eagle medium with 10% foetal bovine serum (FBS), which contained 1% penicillin, 1% streptomycin and 450 μg/ml of G-418) in microtitre plates with 384 wells, (384 Cell carrier plates, Perkin Elmer, cat. no. 6007430), followed by incubation overnight at 37° C./5% CO2. • The volume of the medium was reduced to 10 μl, and 10 μl of 5 μM HaloTag-TMR ligands (Promega, cat. no. G 8251) were added in DMEM medium in order to stain the Fpn-HaloTag fusion protein. • 15 min incubation at 37° C./5% CO2 • The HaloTag-TMR ligand was removed and the cells were washed with fresh DMEM medium and the volume was reduced to 20 μl of DMEM medium. • 3 μl per well of a solution of the test compound (dissolved DMSO) were added ([…]). • 7 μl of […] hepcidin (Peptides International, cat. no. PLP-4392-s, 100 μM stock solution diluted in water in DMEM medium) were added per well up to a final hepcidin concentration of 100 nM. • The cells were incubated overnight at 37° C./5% CO2. • The cells were fixed by adding paraformaldehyde (PFA, Electron Microscopy Sciences, cat. no. 15710-S) directly to the cells up to a final concentration of 4%, followed by incubation at room temperature for 15-20 minutes. • The PFA solution was removed and the cells were washed with PBS (phosphate-buffered saline solution), in each case 30 μl remaining in the plate. • 20 μl of Draq5 (Biostatus, cat. no. DR 51000) were added up to a final concentration of 2.5 μM in order to stain the cell nuclei, and the plates were sealed with a foil plate seal. • The plates were analysed with the Opera Plate Imager (Opera Confocal Plate Imager, Perkin Elmer) with 7 images per well; 440 ms exposure time per image, […] focal point height.
As usually defined, the IC50 is the midpoint of a concentration-inhibition curve. A lower IC50 goes with greater potency in that assay. In turn, `CN1CCN(C(c2ccccn2)c2ccc3cccnc3c2O)CC1` (stereo not shown) [Example 35, 7-[(4-Methyl-piperazin-1-yl)-pyridin-2-yl-methyl]-quinolin-8-ol] had an IC50 below 50 µM.
The same measure for `Oc1c(C(c2ccccn2)N2CCC(c3ccccc3F)CC2)ccc2cccnc12` (stereo not shown) [Example 36, 7-{[4-(2-Fluoro-phenyl)-piperidin-1-yl]-pyridin-2-yl-methyl}-quinolin-8-ol]: below 50 µM.
Next, `Oc1c(C(c2ccccn2)N2CCN(c3ccccn3)CC2)ccc2cccnc12` (stereo not shown) [Example 37, 7-[Pyridin-2-yl-(4-pyridin-2-yl-piperazin-1-yl)-methyl]-quinolin-8-ol]: below 50 µM.
Next, `Oc1c(CN2CCOCC2)cc(CN2CCOCC2)c2cccnc12` [Example 38, 5,7-Bis-morpholin-4-ylmethyl-quinolin-8-ol]: above 100 µM.
For the molecule `Oc1c(C(c2cccs2)N2CCOCC2)cc(Cl)c2cccnc12` (stereo not shown) [Example 39, 5-Chloro-7-(morpholin-4-yl-thiophen-2-yl-methyl)-quinolin-8-ol], the IC50 is below 50 µM.
Next, `Oc1c(C(c2ccc(Cl)cc2)N2CCOCC2)ccc2cccnc12` (stereo not shown) [Example 40, 7-[(4-Chloro-phenyl)-morpholin-4-yl-methyl]-quinolin-8-ol]: below 50 µM; `COc1ccc(C(c2ccc3cccnc3c2O)N2CCOCC2)cc1` (stereo not shown) [Example 41, 7-[(4-Methoxy-phenyl)-morpholin-4-yl-methyl]-quinolin-8-ol]: below 50 µM.
